Results on 1 molecule are retold here after patent publication US4863916A, “Substituted 6-hydroxymethyl-carbapenem antibiotics” (Bayer Aktiengesellschaft, priority 1986, dated 1989).

As a reminder, the MIC is the smallest concentration in the dilution series that meets the test's criterion for growth inhibition. Higher therefore signals a need for much substance.

Holding throughout (assay): Antibacterial action, minimum inhibitory concentration (MIC), agar method on Iso-sensitest agar
Common to all, as to type: cell-based

One assay deals with Staph. 24455. The source says:
(§1) The agar solution method was used for determining the antibacterial action, an Iso-sensitest agar being used and the minimum inhibitory concentration (MIC) of the sample being expressed in μg/ml of the nutrient medium (Table).

The next assay has as its system Staph. E 25185.
Text: as §1

For the next assay, the system named is Staph. 133.
Text: as §1

In the case of `COC(=O)[C@@H](O)[C@H]1C(=O)N2C(C(=O)O)=C(Sc3ccncc3)C[C@H]12` [Example 14, Sodium (5R,6S)-6-[(1S)-1-hydroxy-1-methoxycarbonyl]methyl-7-oxo-3-(4-pyridinylthio)-1-azabicyclo[3.2.0]hept-2encarboxylate], the MIC in the assay on Staph. 24455 was 0.5 µg/mL; in the assay on Staph. E 25185, 1 µg/mL; against Staph. 133, 0.5 µg/mL.
